For six compounds, Uncut DNA and IC50 results are on record in ChEMBL document CHEMBL1130615, “Synthesis, DNA-damaging and cytotoxic properties of novel topoisomerase II-directed bisantrene analogues” (Bioorg Med Chem Lett, 1998).

Test [1] concerns the target T1, DNA topoisomerase II (Homo sapiens) (UniProt P11388+Q02880). The test can be described thus: Percent of DNA remaining uncut after incubation with Topoisomerase II at 1 uM concentration. It is filed as protein assay.
The test system of another test is A2780. Description: Cell cytotoxicity was determined against human ovarian cancer (A2780) cell line. Type of test: functional, cell-based.
Test [2] has as its target T1, DNA topoisomerase II (Homo sapiens). Description: Percent of DNA remaining uncut after incubation with Topoisomerase II at 10 uM concentration. Type of test: protein assay.
A further test concerns HL-60. Description: Cell cytotoxicity was determined against human promyelocytic leukemia (HL60) cell line. Type of test: functional, cell-based.
The target in test [3] is T1, DNA topoisomerase II (Homo sapiens). The test can be described thus: Percent of DNA remaining uncut after incubation with Topoisomerase II at 0.1 uM concentration. Type of test: protein assay.

In general, IC50 refers to the midpoint of a concentration-inhibition curve. Low readings indicate higher potency, high ones lower potency. `C(=N\NC1=NCCN1)/c1cccc2cc3ccccc3cc12`: the results for the Uncut DNA in test [1], in test [2] and in test [3] were 48%, 20% and 56%, respectively. For the same compound, the results for the IC50 in the test with A2780 and in the test with HL-60 were 18.6 µM and 23 µM, respectively.

As to `COc1cc(NS(C)(=O)=O)ccc1Nc1c2ccccc2nc2ccccc12` [AMSACRINE], the values for the Uncut DNA in test [1], in test [2] and in test [3] were 4%, 1% and 12%, respectively. The concentration for half-maximal inhibition (IC50) came out at 0.35 µM in the test on A2780 and 0.4 µM in the test on HL-60.

Consider `C(=N\NC1=NCCN1)/c1ccc(/C=N/NC2=NCCN2)c2cc3ccccc3cc12`, for which the Uncut DNA in test [1] stood at 103%; in test [2] it was 95%; in test [3], 54%. Further, the concentration for half-maximal inhibition (IC50) with A2780 came out at 4.8 µM; with HL-60, 11.2 µM.

Consider `C(=N\NC1=NCCN1)/c1c2ccccc2nc2ccccc12`, for which the Uncut DNA in test [1] worked out at 38%; in test [2], 25%; in test [3], 51%. For the same compound, the IC50 in the test on A2780 was 28.1 µM; with HL-60, 48.1 µM.

In the case of `C(=N\NC1=NCCN1)/c1c2ccccc2cc2ccccc12`, the Uncut DNA in test [1] was 30%; in test [2] it was 11%; in test [3], 41%. For the same compound, the half-maximal inhibitory concentration (IC50) in the test on A2780 was 37.8 µM; with HL-60, 73.5 µM.

Consider `C(=N\NC1=NCCN1)/c1c2ccccc2c(/C=N/NC2=NCCN2)c2ccccc12` [BISANTRENE], for which the values for the Uncut DNA in test [1], in test [2] and in test [3] were 46%, 57% and 14%, respectively. In addition, the results for the IC50 in the test with A2780 and in the test with HL-60 were 0.34 µM and 0.3 µM, respectively.
